The values below come from ChEMBL document CHEMBL6114957, “Exploring anticancer properties of new triazole-linked benzenesulfonamide derivatives against colorectal carcinoma: Synthesis, cytotoxicity, and in silico insights” (Bioorg Med Chem, 2025).

The subject of one series is HT-29. Kind of series: Cytotoxicity against human HT-29 cells assessed as cell viability incubated for 48 hrs by MTT assay. Conditions: HT-29, 48 h. It is filed as functional, cell-based. On the technique in general: Formazan colour is commonly taken as a measure of viable cells.
A short description of series [1]: Cytotoxicity against human CCD-986Sk cells assessed as cell viability incubated for 48 hrs by MTT assay. It is filed as toxicity, cell-based.
In series [2] the test system is DLD-1. Description: Cytotoxicity against human DLD-1 cells assessed as cell viability incubated for 48 hrs by MTT assay. The format is functional, cell-based. Particulars: DLD-1, 48 h.
In a further series the test system is COLO 205. Kind of series: Cytotoxicity against human COLO 205 cells assessed as cell viability incubated for 48 hrs by MTT assay. It is filed as functional, cell-based. Particulars: COLO 205, 48 h.
Series [3] deals with DLD-1. Kind of series: Induction of apoptosis in human DLD-1 cells assessed as viable cells at 10 uM incubated for 48 hrs by Annexin V staining based flow cytometry (reference value: 81.96 %). It is filed as functional. Conditions: read-out: Activity. On the technique in general: A flow cytometer gives signals particle by particle.
In series [4] the test system is DLD-1. Kind of series: Induction of apoptosis in human DLD-1 cells assessed as early apoptotic cells at 10 uM incubated for 48 hrs by Annexin V staining based flow cytometry (reference value: 6.73 %). The format is functional.
Series [5] has as its system DLD-1. Kind of series: Induction of apoptosis in human DLD-1 cells assessed as necrotic cells at 10 uM incubated for 48 hrs by Annexin V staining based flow cytometry (reference value: 5.12 %). The format is functional.
Series [6] concerns DLD-1. Description: Induction of apoptosis in human DLD-1 cells assessed as late apoptotic cells at 10 uM incubated for 48 hrs by Annexin V staining based flow cytometry (reference value: 6.19 %). The format is functional.
Series [7] has as its system DLD-1. Kind of series: Induction of apoptosis in human DLD-1 cells assessed as late apoptotic cells at 5 uM incubated for 48 hrs by Annexin V staining based flow cytometry (reference value: 6.19 %). The format is functional.
Series [8] has as its system DLD-1. Description: Induction of apoptosis in human DLD-1 cells assessed as viable cells at 5 uM incubated for 48 hrs by Annexin V staining based flow cytometry (reference value: 81.96 %). The format is functional. Conditions: read-out: Activity.
Series [9] deals with DLD-1. Kind of series: Induction of apoptosis in human DLD-1 cells assessed as necrotic cells at 5 uM incubated for 48 hrs by Annexin V staining based flow cytometry (reference value: 5.12 %). It is filed as functional.
In series [10] the test system is DLD-1. Description: Induction of apoptosis in human DLD-1 cells assessed as early apoptotic cells at 5 uM incubated for 48 hrs by Annexin V staining based flow cytometry (reference value: 6.73 %). It is filed as functional.

In general, IC50 refers to the concentration that gives 50% inhibition. For `NS(=O)(=O)c1ccc(-n2cc(COc3ccc(C(=O)c4ccccc4)cc3)nn2)cc1`, the IC50 with HT-29 is 20.6 µM; with DLD-1 [2], 19 µM; in the series with COLO 205, greater than 200 µM. In addition, the IC50 at 48 h in series [1] was 15.2 µM.
`CCN(CC)c1ccc(C=O)c(OCc2cn(-c3ccc(S(N)(=O)=O)cc3)nn2)c1`: the IC50 is 41.9 µM with HT-29, 53.4 µM in the series on DLD-1 [2] and 148 µM in the series on COLO 205. The half-inhibitory concentration (IC50) at 48 h in series [1] came to 185 µM.
With `NS(=O)(=O)c1ccc(-n2cc(COc3ccc(Br)cc3C=O)nn2)cc1`, the results for the half-inhibitory concentration (IC50) in the series on HT-29, in the series on DLD-1 [2] and in the series with COLO 205 were greater than 200 µM, 51.1 µM and greater than 200 µM, respectively. The concentration for half-maximal inhibition (IC50) at 48 h in series [1] was greater than 200 µM.
`Cc1ccc(C(C)C)c(OCc2cn(-c3ccc(S(N)(=O)=O)cc3)nn2)c1`: the IC50 in the series on HT-29 is 33.2 µM; in the series with DLD-1 [2] it was 35 µM; in the series with COLO 205, greater than 200 µM. Further, the IC50 at 48 h in [1] came to 13.1 µM.
In the same order, the values of `NS(=O)(=O)c1ccc(-n2cc(COc3ccc4ccccc4c3C=O)nn2)cc1` are greater than 200 µM, 153 µM, greater than 200 µM and greater than 200 µM.
As to `NS(=O)(=O)c1ccc(-n2cc(COc3ccc(C=O)cc3)nn2)cc1`, the values for the concentration for half-maximal inhibition (IC50) in the series on HT-29, in the series on DLD-1 [2] and in the series on COLO 205 were greater than 200 µM, 164 µM and 75.1 µM, respectively. In addition, the IC50 at 48 h in series [1] was greater than 200 µM.
Turning to `CC(=O)c1cc(Cl)ccc1OCc1cn(-c2ccc(S(N)(=O)=O)cc2)nn1`, the results for the IC50 in the series on HT-29, in the series on DLD-1 [2] and with COLO 205 were 187 µM, 15.9 µM and greater than 200 µM, respectively. The IC50 at 48 h in series [1] was found to be 51.3 µM.
In the case of `NS(=O)(=O)c1ccc(-n2cc(COc3ccccc3C=O)nn2)cc1`, the IC50 amounted to 65 µM in the series with HT-29, 52.1 µM with DLD-1 [2] and 147 µM with COLO 205. Moreover, in series [1], the IC50 at 48 h is 96.3 µM.
The like results for `NS(=O)(=O)c1ccc(-n2cc(COc3cccc(C=O)c3)nn2)cc1` were, in that order, greater than 200 µM, 122 µM, 40.9 µM and greater than 200 µM.
The like results for `NS(=O)(=O)c1ccc(-n2cc(COc3ccc(Cl)cc3Cl)nn2)cc1` were, in that order, 63.6 µM, 24.9 µM, 172 µM and 78.2 µM.
Turning to `COc1cccc(C=O)c1OCc1cn(-c2ccc(S(N)(=O)=O)cc2)nn1`, the IC50 was greater than 200 µM with HT-29, 180 µM with DLD-1 [2] and greater than 200 µM in the series on COLO 205. Also, in series [1], the IC50 at 48 h is greater than 200 µM.
Turning to `NS(=O)(=O)c1ccc(-n2cc(COc3ccc([N+](=O)[O-])cc3C=O)nn2)cc1`, the IC50 with HT-29 was determined as 9.35 µM; with DLD-1 [2], 11.8 µM; with COLO 205, 132 µM. Also, the viability at 10 µM in the series with DLD-1 [3] worked out at 55%. The IC50 at 48 h in series [1] was greater than 200 µM. The results for the Activity in the series with DLD-1 [4], in the series with DLD-1 [5] and with DLD-1 [6] were 33.56%, 2.85% and 8.59%, respectively.
Consider `NS(=O)(=O)c1ccc(-n2cc(COc3ccc([N+](=O)[O-])cc3)nn2)cc1`, for which the IC50 amounted to 78 µM with HT-29, 76.8 µM in the series with DLD-1 [2] and 124 µM with COLO 205. Also, in [1], the IC50 at 48 h came out at 69.8 µM.
The like results for `Cc1ccc(OCc2cn(-c3ccc(S(N)(=O)=O)cc3)nn2)c([N+](=O)[O-])c1` were, in that order, 62.8 µM, 13 µM, 165 µM and 25.9 µM.
The like results for `C=CCc1ccc(OCc2cn(-c3ccc(S(N)(=O)=O)cc3)nn2)c(OC)c1` were, in that order, 75.3 µM, 49.8 µM, greater than 200 µM and 134 µM.
Take `O=c1[nH]cc(F)c(=O)[nH]1` [FLUOROURACIL]: the IC50 in the series with HT-29 was found to be 4.51 µM; with DLD-1 [2], 5.75 µM; with COLO 205, 90.1 µM. Further, the IC50 at 48 h in [1] stood at 7.98 µM. Also, the Activity with DLD-1 [7] was found to be 9.91%; with DLD-1 [9], 3.73%; in the series on DLD-1 [10] it was 25.5%. For the same molecule, the viability at 5 µM in the series with DLD-1 [8] stood at 60.9%.
Consider `CC(=O)c1ccc(OCc2cn(-c3ccc(S(N)(=O)=O)cc3)nn2)cc1`, for which the concentration for half-maximal inhibition (IC50) with HT-29 is greater than 200 µM; with DLD-1 [2], 123 µM; in the series with COLO 205, greater than 200 µM. In addition, in series [1], the concentration for half-maximal inhibition (IC50) at 48 h is greater than 200 µM.
With `Cc1ccc(C(C)C)cc1OCc1cn(-c2ccc(S(N)(=O)=O)cc2)nn1`, the IC50 is 35.9 µM with HT-29, 16.6 µM in the series with DLD-1 [2] and greater than 200 µM in the series on COLO 205. For the same molecule, the IC50 at 48 h in series [1] turned out to be 12.8 µM.
In the same order, the values of `CC(=O)c1cccc(OCc2cn(-c3ccc(S(N)(=O)=O)cc3)nn2)c1` are 128 µM, 79.2 µM, 81.3 µM and greater than 200 µM.
The like results for `CC(=O)c1ccccc1OCc1cn(-c2ccc(S(N)(=O)=O)cc2)nn1` were, in that order, 80 µM, 51 µM, 160 µM and 139 µM.
